Reference: US20230416262A1, “TRPML MODULATORS” (Casma Therapeutics, Inc., priority 2020, published 2023)

Tests used:
THP-1 cells = assay: Lamp1 lysosomal exocytosis assay; assay type: cell-based; details: Homo sapiens, 55 min, 55 min incubation, top dose 20 μM
Summary of the method: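 THP-1 cells (1e5/well) exposed to a 7-point 3-fold compound series, top final 20 μM, for 55 min at 37°C. Surface Lamp1 then stained with Lamp1-PE on ice in buffer containing 80 μM Dynasore, and read by flow cytometry as PE geometric mean on live, sytox-negative singlets.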

TFEB = TFEB nuclear translocation assay; assay type: cell-based; details: Homo sapiens; HeLa wt or HeLa TRPML1 KO cells, treated for 2 hrs; ratio of nuclear to ring-region TFEB intensity
Summary of the method: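 HeLa wild-type or TRPML1 KO cells treated 2 h with compound at 37 °C, PFA-fixed, immunostained for TFEB (Alexa 488) with Hoechst nuclei. Imaged at ×20, four fields/well. Value is ratio of nuclear to perinuclear-ring TFEB intensity, with nuclei counts.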

| Structure (SMILES) | EC50 (THP-1 cells) [nM] | EC50 (TFEB) [nM] |
| --- | --- | --- |
| O=S(=O)(c1ccc(C(F)F)cc1)N1CC2(CCN(Cc3ccccc3)CC2)c2ccccc21 [Compound I-168, 1′-benzyl-1-[4-(difluoromethyl)benzenesulfonyl]-1,2-dihydrospiro[indole-3,4′-piperidine]] | ≥ 5010 | ≤ 2000 |
| O=C(Oc1ccccc1)N1CCC2(CC1)CN(S(=O)(=O)c1ccc(C(F)F)cc1)c1ccccc12 [Compound I-169, phenyl 1-((4-(difluoromethyl)phenyl)sulfonyl)spiro[indoline-3,4′-piperidine]-1′-carboxylate] | ≥ 5010 | ≤ 2000 |
| O=C(OCC1CC1)N1CCC2(CC1)CN(S(=O)(=O)c1ccc(C(F)F)cc1)c1ccccc12 [Compound I-170, cyclopropylmethyl 1-((4-(difluoromethyl)phenyl)sulfonyl)spiro[indoline-3,4′-piperidine]-1′-carboxylate] | 510 to 1000 | ≤ 2000 |
| O=C(CCc1ccccc1)N1CCC2(CC1)CN(S(=O)(=O)c1ccc(C(F)F)cc1)c1ccccc12 [Compound I-174, 1-(1-((4-(difluoromethyl)phenyl)sulfonyl)spiro[indoline-3,4′-piperidin]-1′-y1)-3-phenylpropan-1-one] | ≤ 500 | ≤ 2000 |
| CN(Cc1ccccc1)C(=O)N1CCC2(CC1)CN(S(=O)(=O)c1ccc(C(F)F)cc1)c1ccccc12 [Compound I-178, N-benzyl-1-((4-(difluoromethyl)phenyl)sulfonyl)-N-methylspiro[indoline-3,4′-piperidine]-1′-carboxamide] | 510 to 1000 | 2010 to 8000 |
| CS(=O)(=O)c1ccc(S(=O)(=O)N2CC3(CCN(C(=O)OCc4ccccc4)CC3)c3ccccc32)cc1 [Compound I-180] | ≤ 500 | ≤ 2000 |
| CC(C)S(=O)(=O)c1ccc(S(=O)(=O)N2CC3(CCN(C(=O)OCc4ccccc4)CC3)c3ccccc32)cc1 [Compound I-181, benzyl 1-[4-(propane-2-sulfonyl)benzenesulfonyl]-1,2-dihydrospiro[indole-3,4′-piperidine]-1′-carboxylate] | ≤ 500 | ≤ 2000 |
| O=C(OCc1ccccc1)N1CCC2(CC1)CN(S(=O)(=O)c1ccc3c(c1)CCS3(=O)=O)c1ccccc12 [Compound I-182, benzyl 1-((1,1-dioxido-2,3-dihydrobenzo[b]thiophen-5-yl)sulfonyl)spiro[indoline-3,4′-piperidine]-1′-carboxylate] | ≥ 5010 | ≤ 2000 |
| O=C(OCc1ccccc1)N1CCC2(CC1)CN(C(=O)c1ccccc1)c1ccccc12 [Compound I-184, benzyl 1-benzoyl-1,2-dihydrospiro[indole-3,4′-piperidine]-1′-carboxylate] | ≥ 5010 | ≥ 10000 |
| O=C(OCc1ccccc1)N1CCC2(CC1)CN(S(=O)(=O)c1ccc(S(=O)(=O)C(F)F)cc1)c1ccccc12 [Compound I-186, benzyl 1-((4-((difluoromethyl)sulfonyl)phenyl)sulfonyl)spiro[indoline-3,4′-piperidine]-1′-carboxylate] | ≤ 500 | ≤ 2000 |
| O=C(OCc1ccccc1)N1CCC2(CC1)CN(S(=O)(=O)c1ccc(C(F)(F)F)nc1)c1ccccc12 [Compound I-187, benzyl 1-((6-(trifluoromethyl)pyridin-3-yl)sulfonyl)spiro[indoline-3,4′-piperidine]-1′-carboxylate] | 510 to 1000 | ≤ 2000 |
| O=C(OCc1ccccc1)N1CCC2(CC1)CN(S(=O)(=O)c1ccc(C3CC3)cc1)c1ccccc12 [Compound I-188, benzyl 1-((4-cyclopropylphenyl)sulfonyl)spiro[indoline-3,4′-piperidine]-1′-carboxylate] | ≥ 5010 | ≤ 2000 |
| CC1(C)Cc2cc(S(=O)(=O)N3CC4(CCN(C(=O)OCc5ccccc5)CC4)c4ccccc43)ccc2O1 [Compound I-189, benzyl 1-((2,2-dimethyl-2,3-dihydrobenzofuran-5-yl)sulfonyl)spiro[indoline-3,4′-piperidine]-1′-carboxylate] | ≤ 500 | ≤ 2000 |
| CC(C)C(=O)N1CC2(CCN(C(=O)OCc3ccccc3)CC2)c2ccccc21 [Compound I-190, benzyl 1-(2-methylpropanoyl)-1,2-dihydrospiro[indole-3,4′-piperidine]-1′-carboxylate] | ≥ 5010 | ≥ 10000 |
| O=C(OCc1ccccc1)N1CCC2(CC1)CN(C(=O)C1(c3ccccc3)CC1)c1ccccc12 [Compound I-191, benzyl 1-(1-phenylcyclopropanecarbonyl)-1,2-dihydrospiro[indole-3,4′-piperidine]-1′-carboxylate] | ≥ 5010 | 2010 to 8000 |
| O=C(Nc1ccc2c(c1)CCO2)N1CCC2(CC1)CN(S(=O)(=O)c1ccc(C(F)F)cc1)c1ccccc12 [Compound I-219, 1-((4-(difluoromethyl)phenyl)sulfonyl)-N-(2,3-dihydrobenzofuran-5-yl)spiro[indoline-3,4′-piperidine]-1′-carboxamide] | ≥ 5010 | ≥ 10000 |
| O=C(Nc1ccc2c(c1)OCO2)N1CCC2(CC1)CN(S(=O)(=O)c1ccc(C(F)F)cc1)c1ccccc12 [Compound I-220, N-(benzo[d][1,3]dioxol-5-yl)-1-((4-(difluoromethyl)phenyl)sulfonyl)spiro[indoline-3,4′-piperidine]-1′-carboxamide] | ≥ 5010 | 2010 to 8000 |
| O=C(Nc1cccc(C(F)F)c1)N1CCC2(CC1)CN(S(=O)(=O)c1ccc(C(F)F)cc1)c1ccccc12 [Compound I-221, N-(3-(difluoromethyl)phenyl)-1-((4-(difluoromethyl)phenyl)sulfonyl)spiro[indoline-3,4′-piperidine]-1′-carboxamide] | ≥ 5010 | 2010 to 8000 |
| O=C(NC1COc2ccccc2C1)N1CCC2(CC1)CN(S(=O)(=O)c1ccc(C(F)F)cc1)c1ccccc12 (stereo not drawn) [Compound I-222, N-(chroman-3-yl)-1-((4-(difluoromethyl)phenyl)sulfonyl)spiro[indoline-3,4′-piperidine]-1′-carboxamide] | ≥ 5010 | ≤ 2000 |
| O=C(NC1CCOc2ccccc21)N1CCC2(CC1)CN(S(=O)(=O)c1ccc(C(F)F)cc1)c1ccccc12 (stereo not drawn) [Compound I-223, N-(chroman-4-yl)-1-((4-(difluoromethyl)phenyl)sulfonyl)spiro[indoline-3,4′-piperidine]-1′-carboxamide] | 510 to 1000 | ≤ 2000 |
| O=C(Nc1ccc2c(c1)OCCO2)N1CCC2(CC1)CN(S(=O)(=O)c1ccc(C(F)F)cc1)c1ccccc12 [Compound I-225, 1-((4-(difluoromethyl)phenyl)sulfonyl)-N-(2,3-dihydrobenzo[b][1,4]dioxin-6-yl)spiro[indoline-3,4′-piperidine]-1′-carboxamide] | ≥ 5010 | ≥ 10000 |
| COc1ccc(NC(=O)N2CCC3(CC2)CN(S(=O)(=O)c2ccc(C(F)F)cc2)c2ccccc23)cc1OC [Compound I-226, 1-((4-(difluoromethyl)phenyl)sulfonyl)-N-(3,4-dimethoxyphenyl)spiro[indoline-3,4′-piperidine]-1′-carboxamide] | ≥ 5010 | ≥ 10000 |
| COc1ccc(NC(=O)N2CCC3(CC2)CN(S(=O)(=O)c2ccc(C(F)F)cc2)c2ccccc23)c(OC)c1 [Compound I-227, 1-((4-(difluoromethyl)phenyl)sulfonyl)-N-(2,4-dimethoxyphenyl)spiro[indoline-3,4′-piperidine]-1′-carboxamide] | ≥ 5010 | 2010 to 8000 |
| COc1cccc(NC(=O)N2CCC3(CC2)CN(S(=O)(=O)c2ccc(C(F)F)cc2)c2ccccc23)c1OC [Compound I-228, 1-((4-(difluoromethyl)phenyl)sulfonyl)-N-(2,3-dimethoxyphenyl)spiro[indoline-3,4′-piperidine]-1′-carboxamide] | ≥ 5010 | ≤ 2000 |
| O=C(Nc1ccccc1)C1CCC2(CC1)CN(S(=O)(=O)c1ccc(C(F)F)cc1)c1ccccc12 (stereo not drawn) [Compound I-230, 1′-((4-(difluoromethyl)phenyl)sulfonyl)-N-phenylspiro[cyclohexane-1,3′-indoline]-4-carboxamide] | ≥ 5010 | ≤ 2000 |
| CN(C(=O)C1CCC2(CC1)CN(S(=O)(=O)c1ccc(C(F)F)cc1)c1ccccc12)c1ccccc1 (stereo not drawn) [Compound I-234, 1′-((4-(difluoromethyl)phenyl)sulfonyl)-N-methyl-N-phenylspiro[cyclohexane-1,3′-indoline]-4-carboxamide] | ≥ 5010 | ≤ 2000 |
| CN(Cc1ccccc1)C(=O)C1CCC2(CC1)CN(S(=O)(=O)c1ccc(C(F)F)cc1)c1ccccc12 (stereo not drawn) [Compound I-235, N-benzyl-1′-((4-(difluoromethyl)phenyl)sulfonyl)-N-methylspiro[cyclohexane-1,3′-indoline]-4-carboxamide] | ≥ 5010 | ≤ 2000 |
| O=C(OCc1ccccc1)N1CCC2(CC1)CN(C(=O)Cc1ccc(C(F)F)cc1)c1ccccc12 [Compound I-246, benzyl 1-(2-(4-(difluoromethyl)phenyl)acetyl)spiro[indoline-3,4′-piperidine]-1′-carboxylate] | ≥ 5010 | ≥ 10000 |
| O=C(OCc1ccccc1)N1CCC2(CC1)CN(C(=O)Nc1ccc(C(F)F)cc1)c1ccccc12 [Compound I-247, benzyl 1-((4-(difluoromethyl)phenyl)carbamoyl)spiro[indoline-3,4′-piperidine]-1′-carboxylate] | ≥ 5010 | ≥ 10000 |
| CN(C(=O)N1CC2(CCN(C(=O)OCc3ccccc3)CC2)c2ccccc21)c1ccc(C(F)F)cc1 [Compound I-248, benzyl 1-((4-(difluoromethyl)phenyl)(methyl)carbamoyl)spiro[indoline-3,4′-piperidine]-1′-carboxylate] | ≥ 5010 | ≥ 10000 |
